In patent US8715678B2, “Method for inhibiting the formation of SET1 family core complexes” (Syracuse University, priority 2008, dated 2014):
Ends that are not written are not given here.

How the values were obtained:
[1] = target: T1, WDR5 (Homo sapiens, UniProt P61964); test: Binding of N-acetylated three residue peptide (method not given); conditions: acetylated on the N-terminus
T1 construct: pMCGS7 plasmids encoding full-length WDR5 as N-terminal His6 fusions were obtained; His6 (N); made in house; host or cells: Escherichia coli (Rosetta II, Novagen)

[2] = tested on: MLL1-dependent Hox genes (e.g. Hoxc8 and Hoxa9); test: Expression of MLL1-dependent Hox genes in HEK293T cells; type: cell-based; conditions: 20 micrograms per milliliter, 24 hours
From the text: In another embodiment, an inhibitor peptide with a cell penetration sequence is used to treat MLL1-associated leukemia. […] The addition of the inhibitor peptides disclosed herein can help control the degree of upregulation and thereby serve as a treatment for leukemia. Experiments have shown the degree of expression of MLL1-dependent Hox genes (e.g. Hoxc8 and Hoxa9) are decreased in the presence of inhibitor peptide SEQ ID NO. 34 in HEK293T cells treated with 20 micrograms per milliliter of the inhibitor peptide for 24 hours.

[3] = tested on: mouse embryonic carcinoma cell nuclei; test: Fluorescence localization and nuclear phenotype in mouse embryonic carcinoma cells; type: cell-based
[4] = tested on: H3K4 trimethylation / H3K27 trimethylation of H3; test: Western blot of H3K4 trimethylation to H3K27 trimethylation ratio in HEK293T cells; type: cell-based; conditions: 20 micrograms per milliliter, 24 hours, normalized to total histone H3
Procedure: HEK293T cells were treated with 20 micrograms per milliliter of the inhibitor peptide (SEQ ID NO. 34) for 24 hours and immune-blotted using antibodies specific for H3K4 trimethylation, H3K27 trimethylation, and histone H3 (to provide for normalization). Western blots were quantified based on band intensity using image analysis software and normalized as a function of total histone H3. Tubulin was used as a loading control and its level remained constant between the two samples.

Substance | binding of three residue peptide [1] | degree of expression of MLL1-dependent Hox genes (Hoxc8 and Hoxa9) [2] | localization of fluorescent signature ([3]; mouse embryonic carcinoma cells) | effect on metaphase cells and nuclear shape ([3]; within 48 hours of treatment) | ratio of H3K4 trimethylation to H3K27 trimethylation [4]
acART (Ac-Ala-Arg-Thr) [three residue peptide (ARX2)] | capable of binding | – | – | – | –
Ac-VNPTGCARSEPK-Ahx-K(FTIC)-GRKKRRQRRRAP-CONH2 [SEQ ID NO. 34] | – | decreased | rapidly localized to eurchromatic regions of mouse embryonic carcinoma cell nuclei | metaphase cells are absent and many cell nuclei have adopted altered shapes | lowering of the ratio of H3K4 to H3K27
